The target of this assay is recombinant human integrin αvβ6 (Homo sapiens (Human), UniProt P06756+P18564). As to the kind of experiment: Solid phase integrin αvβ6 binding assay. The settings on record: IC50 presented in four ranges; read-out: αvβ6 Inhibition IC50 (nM) - range. As for the experimental part: (§1) Microplates were coated with recombinant human integrin αvβ6 (2 µg/mL) in PBS (100 µL/well 25° C., overnight). The coating solution was removed, washed with wash buffer (0.05% Tween 20; 0.5 mM MnCl2; in 1x TBS). The plate was blocked with 200 µL/well of Block Buffer (1% BSA; 5% sucrose; 0.5 mM MnCl2; in 1x TBS) at 37° C. for 2 h. Dilutions of testing compounds and recombinant TGFβ1 LAP (0.67 µg/mL) in binding buffer (0.05% BSA; 2.5% sucrose; 0.5 mM MnCl2; in 1x TBS) were added. The plate was incubated for 2 hours at 25° C., washed, and incubated for 1 hour with Biotin-Anti-hLAP. Bound antibody was detected by peroxidase-conjugated streptavidin. The IC50 values for testing compounds were calculated by a four-parameter logistic regression.
Chain of recombinant human integrin αvβ6 (P06756 31-889): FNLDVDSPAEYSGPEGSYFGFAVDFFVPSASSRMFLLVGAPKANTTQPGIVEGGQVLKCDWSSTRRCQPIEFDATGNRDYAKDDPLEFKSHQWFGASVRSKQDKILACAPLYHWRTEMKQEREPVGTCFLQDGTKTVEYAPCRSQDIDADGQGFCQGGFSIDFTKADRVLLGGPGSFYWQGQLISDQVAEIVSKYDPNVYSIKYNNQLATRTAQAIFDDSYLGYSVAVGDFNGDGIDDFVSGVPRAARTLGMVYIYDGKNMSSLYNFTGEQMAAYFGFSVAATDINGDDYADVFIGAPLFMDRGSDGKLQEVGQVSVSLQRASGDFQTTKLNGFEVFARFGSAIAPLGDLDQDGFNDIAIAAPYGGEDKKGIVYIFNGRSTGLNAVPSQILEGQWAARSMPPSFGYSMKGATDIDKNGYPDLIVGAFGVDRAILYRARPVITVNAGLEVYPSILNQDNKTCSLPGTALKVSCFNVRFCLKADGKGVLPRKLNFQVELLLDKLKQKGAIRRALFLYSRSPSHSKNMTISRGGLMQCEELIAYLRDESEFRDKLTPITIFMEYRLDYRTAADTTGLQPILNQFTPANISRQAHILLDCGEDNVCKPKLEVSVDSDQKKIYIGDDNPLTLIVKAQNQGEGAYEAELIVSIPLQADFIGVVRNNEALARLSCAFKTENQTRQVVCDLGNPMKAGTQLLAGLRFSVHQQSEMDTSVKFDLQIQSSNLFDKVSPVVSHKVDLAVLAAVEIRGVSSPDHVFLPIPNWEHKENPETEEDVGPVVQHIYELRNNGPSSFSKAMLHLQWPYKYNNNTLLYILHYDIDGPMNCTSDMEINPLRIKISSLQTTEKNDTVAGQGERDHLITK
Chain of recombinant human integrin αvβ6 (P06756 890-992 partner): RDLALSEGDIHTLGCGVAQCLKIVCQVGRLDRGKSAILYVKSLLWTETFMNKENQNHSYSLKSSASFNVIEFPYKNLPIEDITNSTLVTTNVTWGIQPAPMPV
Chain of recombinant human integrin αvβ6 (P18564 22-707): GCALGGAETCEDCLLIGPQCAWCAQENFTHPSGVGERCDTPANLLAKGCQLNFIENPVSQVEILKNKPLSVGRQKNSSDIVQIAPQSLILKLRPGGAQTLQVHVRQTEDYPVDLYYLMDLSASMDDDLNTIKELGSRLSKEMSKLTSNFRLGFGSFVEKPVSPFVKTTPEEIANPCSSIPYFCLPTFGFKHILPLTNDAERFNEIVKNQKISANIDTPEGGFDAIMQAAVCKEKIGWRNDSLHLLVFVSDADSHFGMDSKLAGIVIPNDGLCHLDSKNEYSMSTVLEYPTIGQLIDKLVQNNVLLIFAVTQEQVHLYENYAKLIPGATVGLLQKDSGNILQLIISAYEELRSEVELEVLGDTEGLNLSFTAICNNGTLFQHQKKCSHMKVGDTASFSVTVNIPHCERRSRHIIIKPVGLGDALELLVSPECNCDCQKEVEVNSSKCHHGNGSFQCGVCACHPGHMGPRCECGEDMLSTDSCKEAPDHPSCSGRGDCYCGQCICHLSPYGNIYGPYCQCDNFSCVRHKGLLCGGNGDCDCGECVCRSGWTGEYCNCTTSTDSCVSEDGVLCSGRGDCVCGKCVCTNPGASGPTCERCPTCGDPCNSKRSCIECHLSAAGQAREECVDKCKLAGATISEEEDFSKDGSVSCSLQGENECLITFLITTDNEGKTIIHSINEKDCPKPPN
The compounds tested were compound samples prepared according to procedures described in the Synthetic Examples section, with the stereochemical purity as indicated in the Examples.
as §1, with “A third series of exemplary compounds was selected for testing in the solid phase integrin αvβ6 binding assay. The compounds tested were compound samples prepared according to procedures described in the Synthetic Examples section, with the stereochemical purity as indicated in the Examples. As in Example B1, microplates” for “Microplates”
What is called IC50 is the midpoint of a concentration-inhibition curve. As to `COC[C@@H](F)CN(CCCCc1ccc2c(n1)NCCC2)CC[C@H](Nc1nc(C)nc2cc(F)ccc12)C(=O)O` [compound 32], the half-inhibitory concentration (IC50) was under 50 nM.
With `O=C(O)[C@H](CCN(CCCCc1ccc2c(n1)NCCC2)CC(F)F)Nc1ncc(C(F)(F)F)cn1` [compound 95], the concentration for half-maximal inhibition (IC50) is over 1000 nM.
With `Cn1ncc2c(N[C@@H](CCN(CCCF)CCCCc3ccc4c(n3)NCCC4)C(=O)O)ncnc21` [compound 136], the concentration for half-maximal inhibition (IC50) was under 50 nM.
In the case of `O=C(O)[C@H](CCN(CCCCc1ccc2c(n1)NCCC2)CCOc1ccccc1)Nc1ncc(C2CC2)cn1` [compound 117], the 50% inhibitory concentration (IC50) is under 50 nM.
In the case of `COCCN(CCCCc1ccc2c(n1)NCCC2)CC[C@H](Nc1ccnc2ccccc12)C(=O)O` [compound 36], the half-maximal inhibitory concentration (IC50) is over 1000 nM.
Regarding `COC[C@@H](F)CN(CCCCc1ccc2c(n1)NCCC2)CC[C@H](Nc1ncnc2c1cnn2C)C(=O)O` [compound 105], the IC50 was under 50 nM.
Turning to `COCCN(CCCCc1ccc2c(n1)NCCC2)CC[C@H](Nc1ncnc2cccc(F)c12)C(=O)O` [compound 18], the IC50 is under 50 nM.
In the case of `O=C(O)[C@H](CCN(CCCCc1ccc2c(n1)NCCC2)CCC(F)F)Nc1ncc(Br)cn1` [compound 131], the half-maximal inhibitory concentration (IC50) lay within 50 to 250 nM.
`O=C(O)[C@H](CCN(CCCCc1ccc2c(n1)NCCC2)CC(F)F)Nc1ccnc(C(F)(F)F)n1` [compound 97]: the concentration for half-maximal inhibition (IC50) is over 1000 nM.
For `O=C(O)[C@H](CCN(CCCCc1ccc2c(n1)NCCC2)CCOCC(F)(F)F)Nc1ncnc2ccccc12` [compound 39], the IC50 was under 50 nM.
Take `O=C(O)[C@H](CCN(CCCCc1ccc2c(n1)NCCC2)CC(F)F)Nc1ncc(C2CC2)cn1` [compound 146]: the IC50 was over 1000 nM.
`O=C(O)[C@H](CCN(CCCCc1ccc2c(n1)NCCC2)C1CC1)Nc1ncc(C(F)(F)F)cn1` [compound 114]: the IC50 is under 50 nM.
Regarding `O=C(O)[C@H](CCN(CCCCc1ccc2c(n1)NCCC2)CCOC(F)F)Nc1ncnc2ccccc12` [compound 35], the half-inhibitory concentration (IC50) is under 50 nM.
The same measure for `O=C(O)[C@H](CCN(CCCCc1ccc2c(n1)NCCC2)CCOc1ccc(F)cc1)Nc1ncnc2[nH]ncc12` [compound 143]: 50 to 250 nM; for `O=C(O)[C@H](CCN(CCO)CCCCc1ccc2c(n1)NCCC2)Nc1ncnc2ccccc12` [compound 75]: under 50 nM.
On to `Cn1ncc2c(N[C@@H](CCN(CCCCc3ccc4c(n3)NCCC4)CCOc3ccc(F)cc3)C(=O)O)ncnc21` [compound 123], for which the IC50 was under 50 nM.
In the case of `CS(=O)(=O)CCN(CCCCc1ccc2c(n1)NCCC2)CC[C@H](Nc1ncnc2[nH]ncc12)C(=O)O` [compound 125], the half-inhibitory concentration (IC50) fell in the range of 50 to 250 nM.
For the compound `O=C(O)[C@H](CCN(CCCCc1ccc2c(n1)NCCC2)CC1CCO1)Nc1ncnc2ccccc12` (some centres unmarked) [compound 129], the IC50 is under 50 nM.
For the compound `CS(=O)(=O)CCN(CCCCc1ccc2c(n1)NCCC2)CC[C@H](Nc1ncc(C(F)(F)F)cn1)C(=O)O` [compound 102], the IC50 was over 1000 nM.
In the case of `N#Cc1cnc(N[C@@H](CCN(CCCCc2ccc3c(n2)NCCC3)CCOc2ccc(F)cc2)C(=O)O)nc1` [compound 138], the IC50 is under 50 nM.
`O=C(O)[C@H](CCN(CCCCc1ccc2c(n1)NCCC2)CC(F)F)Nc1ncncc1-c1ccccc1` [compound 119]: the half-maximal inhibitory concentration (IC50) was over 1000 nM.
Regarding `O=C(O)[C@H](CCN(CCCCc1ccc2c(n1)NCCC2)CCOCC(F)(F)F)Nc1ncnc2cccnc12` [compound 51], the half-maximal inhibitory concentration (IC50) is under 50 nM.
In the case of `CO[C@H](C)CN(CCCCc1ccc2c(n1)NCCC2)CC[C@H](Nc1cc(-n2cccn2)ncn1)C(=O)O` [compound 77], the IC50 was under 50 nM.
Consider `CO[C@@H](C)CN(CCCCc1ccc2c(n1)NCCC2)CC[C@H](Nc1ncnc2ccccc12)C(=O)O` [compound 25], for which the IC50 was under 50 nM.
Consider `CO[C@H](C)CN(CCCCc1ccc2c(n1)NCCC2)CC[C@H](Nc1ncnc2cn[nH]c12)C(=O)O` [compound 79], for which the half-maximal inhibitory concentration (IC50) is under 50 nM.
On to `CN(C)C(=O)CN(CCCCc1ccc2c(n1)NCCC2)CC[C@H](Nc1ccnc(C(F)(F)F)n1)C(=O)O` [compound 145], for which the half-maximal inhibitory concentration (IC50) was under 50 nM.
Turning to `Cc1nc(N[C@@H](CCN(CCCCc2ccc3c(n2)NCCC3)CCOc2ccc(F)cc2)C(=O)O)c2ccc(F)cc2n1` [compound 40], the IC50 was under 50 nM.
As for `O=C(O)[C@H](CCN(CCCCc1ccc2c(n1)NCCC2)CCOc1ccccc1)Nc1nc(-c2cccnc2)nc2ccccc12` [compound 94], the IC50 was under 50 nM.
Take `O=C(O)[C@H](CCN(CCCCc1ccc2c(n1)NCCC2)C1CC(F)(F)C1)Nc1ncnc2ccccc12` [compound 9]: the 50% inhibitory concentration (IC50) was over 1000 nM.
Take `O=C(O)[C@H](CCN(CCCCc1ccc2c(n1)NCCC2)CCOc1ccccc1)Nc1ccnc(C(F)(F)F)n1` [compound 92]: the half-inhibitory concentration (IC50) was under 50 nM.
For `O=C(O)[C@H](CCN(CCCCc1ccc2c(n1)NCCC2)CCOCC(F)F)Nc1ncnc2ccccc12` [compound 50], the half-inhibitory concentration (IC50) is under 50 nM.
The figure for `Cc1nc(N[C@@H](CCN(CCCCc2ccc3c(n2)NCCC3)CCOc2cccnc2C)C(=O)O)c2ccc(F)cc2n1` [compound 53] is under 50 nM; for `O=C(O)[C@H](CCN(CCCCc1ccc2c(n1)NCCC2)CC(F)F)Nc1cc(-c2ccccc2)ncn1` [compound 142] it is over 1000 nM.
Regarding `COCCN(CCCCc1ccc2c(n1)NCCC2)CC[C@H](Nc1nccc2ccccc12)C(=O)O` [compound 34], the half-inhibitory concentration (IC50) is over 1000 nM.
The same measure for `COCCN(CCCCc1ccc2c(n1)NCCC2)CC[C@H](Nc1ccnc(C(F)(F)F)n1)C(=O)O` [compound 24]: under 50 nM.
For the compound `COCCN(CCCCc1ccc2c(n1)NCCC2)CC[C@H](Nc1nc(C(F)(F)F)nc2ccccc12)C(=O)O` [compound 14], the half-inhibitory concentration (IC50) is under 50 nM.
Regarding `Cc1ncccc1OCCN(CCCCc1ccc2c(n1)NCCC2)CCC(Nc1ncnc2ccccc12)C(=O)O` (centres unmarked) [compound 52], the IC50 is under 50 nM.
Take `CO[C@H](C)CN(CCCCc1ccc2c(n1)NCCC2)CC[C@H](Nc1ncncc1-c1ccccc1)C(=O)O` [compound 81]: the concentration for half-maximal inhibition (IC50) is under 50 nM.
For the compound `COC[C@@H](F)CN(CCCCc1ccc2c(n1)NCCC2)CC[C@H](Nc1nc(-c2cccnc2)nc2ccccc12)C(=O)O` [compound 109], the half-inhibitory concentration (IC50) was under 50 nM.
`Cc1ccc2c(N[C@@H](CCN(CCCCc3ccc4c(n3)NCCC4)CCOc3ccc(C)nc3)C(=O)O)nc(C)nc2c1` [compound 56]: the concentration for half-maximal inhibition (IC50) is under 50 nM.
As for `Cc1nc(N[C@@H](CCN(CCCCc2ccc3c(n2)NCCC3)CCOc2cncc(F)c2)C(=O)O)c2ccc(F)cc2n1` [compound 61], the IC50 was under 50 nM.
For `O=C(O)[C@H](CCN(CCCCc1ccc2c(n1)NCCC2)CCOc1cc(F)cc(F)c1)Nc1ncnc2ccccc12` [compound 47], the IC50 is under 50 nM.
`O=C(O)[C@H](CCN(CCCCc1ccc2c(n1)NCCC2)CCC(F)F)Nc1ccnc(C(F)(F)F)n1` [compound 134]: the IC50 fell in the range of 50 to 250 nM.
Consider `COCCN(CCCCc1ccc2c(n1)NCCC2)CC[C@H](Nc1ncnc2cc(Cl)ccc12)C(=O)O` [compound 37], for which the half-maximal inhibitory concentration (IC50) is 50 to 250 nM.
The figure for `O=C(O)[C@H](CCN(CCCCc1ccc2c(n1)NCCC2)CC(F)F)Nc1ccncn1` [compound 120] is over 1000 nM; for `O=C(O)[C@H](CCN(CCCF)CCCCc1ccc2c(n1)NCCC2)Nc1ncc(C(F)(F)F)cn1` [compound 137] it is under 50 nM; for `CN(C)C(=O)CN(CCCCc1ccc2c(n1)NCCC2)CC[C@H](Nc1ncc(C(F)(F)F)cn1)C(=O)O` [compound 141] it is 50 to 250 nM.
Take `O=C(O)[C@H](CCN(CCCCc1ccc2c(n1)NCCC2)CC(F)F)Nc1ncc(F)cn1` [compound 121]: the concentration for half-maximal inhibition (IC50) was over 1000 nM.
With `COCCN(CCCCc1ccc2c(n1)NCCC2)CC[C@H](Nc1ncnc2c(C(F)(F)F)cccc12)C(=O)O` [compound 15], the IC50 was under 50 nM.
With `CO[C@H](C)CN(CCCCc1ccc2c(n1)NCCC2)CCC(Nc1ncnc2ccccc12)C(=O)O` (some centres unmarked) [compound 62], the IC50 is under 50 nM.
In the case of `O=C(O)[C@H](CCN(CCCCc1ccc2c(n1)NCCC2)CCOc1ccc(F)cc1)Nc1ncc(C(F)(F)F)cn1` [compound 139], the IC50 was under 50 nM.
For `CN(C)C(=O)CN(CCCCc1ccc2c(n1)NCCC2)CC[C@H](Nc1ncnc2ccccc12)C(=O)O` [compound 64], the IC50 was under 50 nM.
Take `COCCN(CCCCc1ccc2c(n1)NCCC2)CC[C@H](Nc1nc(C)nc2cc(F)ccc12)C(=O)O` [compound 12]: the half-maximal inhibitory concentration (IC50) is under 50 nM.
Turning to `COCCN(CCCCc1ccc2c(n1)NCCC2)CC[C@H](Nc1nccnc1C#N)C(=O)O` [compound 67], the IC50 is under 50 nM.
With `O=C(O)[C@H](CCN(CCCCc1ccc2c(n1)NCCC2)CC(F)F)Nc1nc(-c2cccnc2)nc2ccccc12` [compound 99], the IC50 was 250 to 1000 nM.
On to `CO[C@H](C)CN(CCCCc1ccc2c(n1)NCCC2)CC[C@H](Nc1ccncn1)C(=O)O` [compound 127], for which the half-maximal inhibitory concentration (IC50) was in the range of 250 to 1000 nM.

The record behind these values is US20230293519A1, “INTEGRIN INHIBITORS AND USES THEREOF IN COMBINATION WITH OTHER AGENTS” (Pliant Therapeutics, Inc., priority 2021, published 2023).
